Reference: patent publication US20240150368A1, “ULK INHIBITORS AND METHODS OF USE THEREOF” (Deciphera Pharmaceuticals, LLC, priority 2022, published 2024)
pIC50: −log10 of the molar value.

Key:
LRRK2 kinase = molecular target: T1, LRRK2 kinase (Homo sapiens, UniProt Q5S007); test: Biochemical assay for LRRK2 (coupled pyruvate kinase/lactate dehydrogenase assay); conditions: 26.4 nM LRRK2, 1 mM ATP; read-out: LRRK2 (inhibition of LRRK2 kinase activity, IC50)
T1 construct: (residues 970-2528; ID NO; 3); purchased Thermo Fisher
T1 sequence (Q5S007 with tags, fused parts or gaps): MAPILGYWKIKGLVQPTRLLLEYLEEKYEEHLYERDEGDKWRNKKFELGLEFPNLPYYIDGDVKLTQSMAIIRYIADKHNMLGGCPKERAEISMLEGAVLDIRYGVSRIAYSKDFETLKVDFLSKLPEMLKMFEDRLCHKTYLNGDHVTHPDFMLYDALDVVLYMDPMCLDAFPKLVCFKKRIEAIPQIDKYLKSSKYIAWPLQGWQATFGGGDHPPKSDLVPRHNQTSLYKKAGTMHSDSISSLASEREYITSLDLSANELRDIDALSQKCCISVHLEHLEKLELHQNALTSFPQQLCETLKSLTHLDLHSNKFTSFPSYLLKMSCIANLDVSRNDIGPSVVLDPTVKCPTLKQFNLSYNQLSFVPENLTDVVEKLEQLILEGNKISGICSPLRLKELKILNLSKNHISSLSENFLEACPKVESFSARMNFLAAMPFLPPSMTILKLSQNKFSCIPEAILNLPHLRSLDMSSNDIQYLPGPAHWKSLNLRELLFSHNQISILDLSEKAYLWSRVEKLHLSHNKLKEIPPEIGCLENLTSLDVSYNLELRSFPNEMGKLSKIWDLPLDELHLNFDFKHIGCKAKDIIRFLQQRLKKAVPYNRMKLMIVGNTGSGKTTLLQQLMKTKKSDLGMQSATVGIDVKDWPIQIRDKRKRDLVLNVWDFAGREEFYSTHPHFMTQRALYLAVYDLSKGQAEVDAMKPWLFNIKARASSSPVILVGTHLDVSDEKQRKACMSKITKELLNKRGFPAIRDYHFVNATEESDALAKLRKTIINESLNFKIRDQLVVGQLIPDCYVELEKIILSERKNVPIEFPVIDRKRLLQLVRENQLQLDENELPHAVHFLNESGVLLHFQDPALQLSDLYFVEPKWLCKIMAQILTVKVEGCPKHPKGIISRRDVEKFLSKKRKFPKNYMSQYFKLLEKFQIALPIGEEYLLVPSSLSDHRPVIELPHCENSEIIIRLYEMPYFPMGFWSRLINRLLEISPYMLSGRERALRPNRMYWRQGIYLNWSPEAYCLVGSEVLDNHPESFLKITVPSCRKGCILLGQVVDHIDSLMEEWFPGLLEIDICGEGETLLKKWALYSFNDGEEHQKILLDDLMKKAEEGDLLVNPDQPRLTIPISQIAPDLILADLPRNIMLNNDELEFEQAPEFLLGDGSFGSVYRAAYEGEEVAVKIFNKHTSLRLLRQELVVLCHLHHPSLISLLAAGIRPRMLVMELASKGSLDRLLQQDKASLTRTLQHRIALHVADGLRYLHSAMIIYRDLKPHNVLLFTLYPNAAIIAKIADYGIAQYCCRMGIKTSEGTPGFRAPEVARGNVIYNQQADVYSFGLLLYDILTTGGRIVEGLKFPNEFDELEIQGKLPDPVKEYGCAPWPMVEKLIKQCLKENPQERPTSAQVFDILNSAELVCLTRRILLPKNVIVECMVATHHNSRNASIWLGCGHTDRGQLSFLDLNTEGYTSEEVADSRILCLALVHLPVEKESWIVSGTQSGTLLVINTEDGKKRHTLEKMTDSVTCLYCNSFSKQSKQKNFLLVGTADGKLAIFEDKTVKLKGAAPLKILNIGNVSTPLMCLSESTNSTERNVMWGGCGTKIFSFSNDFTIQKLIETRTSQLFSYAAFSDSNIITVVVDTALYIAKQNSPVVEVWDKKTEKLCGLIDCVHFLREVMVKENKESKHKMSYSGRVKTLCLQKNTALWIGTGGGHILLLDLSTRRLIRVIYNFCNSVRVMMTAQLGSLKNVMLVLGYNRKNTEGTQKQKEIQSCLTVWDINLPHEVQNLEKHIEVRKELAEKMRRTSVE
Procedure: Biochemical Assay for LRRK2 (SEQ. ID NO. 3)
Activity of LRRK2 kinase was determined spectroscopically using a coupled pyruvate kinase/lactate dehydrogenase assay that continuously monitors the ATP hydrolysis-dependent oxidation of NADH (e.g., Schindler et al. Science (2000) 289: 1938-1942). Assays were conducted in 384-well plates (100 μL final volume) using 26.4 nM LRRK2 (Thermo Fisher), 0.1 mM peptide substrate (RLGRDKYKTLRQIRQ), 1.5 units pyruvate kinase, 2.1 units lactate dehydrogenase, 1 mM phosphoenol pyruvate, 0.28 mM NADH and 1 mM ATP in assay buffer (100 mM Tris, pH 7.5, 15 mM MgCl2, 0.5 mM DTT, 0.004% (w/v) BSA, and 0.004% Triton X-100). Inhibition of LRRK2 was measured by adding serial diluted test compound (final assay concentration of 1% DMSO). A decrease in absorption at 340 nm was monitored continuously for 6 h at 30° C. on a multi-mode microplate reader (BioTek). The reaction rate was calculated using the 2-3 h time frame. The reaction rate at each concentration of compound was converted to percent inhibition using controls (i.e., reaction with no test compound and reaction with a known inhibitor) and IC50 values were calculated using software routines in Prism (GraphPad software).

[1] = test system: ULK kinase substrate ATG13 (pS318-ATG13) in A549 (KRAS mutant) cells; test: pATG13 levels of mutant KRas A549 cells after treatment with ULK inhibitors in combination with trametinib (ELISA); assay type: cell-based, human
Method in brief: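 A549 cells grown overnight were treated with a test-compound dose response plus trametinib at 250 nM final (or DMSO) overnight at 37° C. Lysates were assayed by total-ATG13 capture and biotinylated pS318-ATG13 detection ELISA (450 nm minus 540 nm background); % phosphorylation versus controls gave IC50 values.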

SMILES | pIC50 (LRRK2 kinase) | pIC50 [1]
CC/C(Nc1cnn(C2CCN(C(C)C)CC2)c1)=C1/C(=O)Nc2ccc(C(=O)NC[C@H]3CCCO3)cc21 [Example 1, (R,Z)-3-(1-((1-(1-isopropylpiperidin-4-yl)-1H-pyrazol-4-yl)amino)propylidene)-2-oxo-N-((tetrahydrofuran-2-yl)methyl)indoline-5-carboxamide] | 6.52 to 7.00 | 6.52 to 7.00
CC/C(Nc1ccc(N2C[C@H]3CN(C)C[C@H]3C2)cc1)=C1/C(=O)Nc2ccc(C(=O)NCC(C)C)cc21 [Example 63] | – | ≥ 7.00
CC/C(Nc1ccc(N2CC3(CN(C)C3)C2)cc1)=C1/C(=O)Nc2ccc(C(=O)NCC(C)C)cc21 [Example 65] | – | ≥ 7.00
CC/C(Nc1ccc(N2CC3CC(C2)N3C)cc1)=C1/C(=O)Nc2ccc(C(=O)NCC(C)C)cc21 [Example 67] | – | ≥ 7.00
CC/C(Nc1ccc(N2CC3CC(C2)N3C)cc1)=C1/C(=O)Nc2ccc(C(=O)NC[C@H]3CCCO3)cc21 [Example 68] | – | ≥ 7.00
CC/C(Nc1ccc(N2CCN(C)CC2)nc1)=C1/C(=O)Nc2ccc(C(=O)NCC(F)(F)F)cc21 [Example 74] | – | 6.52 to 7.00
CC/C(Nc1cnn(C2CCN(C(C)C)CC2)c1)=C1/C(=O)Nc2ccc(C(=O)NC[C@H]3CC(F)(F)CO3)cc21 [Example 80] | – | ≥ 7.00
CC/C(Nc1cnn(C2CCN(C(C)C)CC2)c1)=C1/C(=O)Nc2ccc(C(=O)NCCOC(F)(F)F)cc21 [Example 82] | – | 6.22 to 6.52
CC/C(Nc1cnn(C2CCN(C(C)C)CC2)c1)=C1/C(=O)Nc2ccc(C(=O)NC[C@H]3CCCCO3)cc21 [Example 83] | – | ≥ 7.00
CC/C(Nc1ccc(N2CC3(COC3)C2)cc1)=C1/C(=O)Nc2ccc(C(=O)NCC(F)(F)F)cc21 [Example 85] | ≥ 7.00 | 6.22 to 6.52
CC/C(Nc1cnn(C2CN(C)C2)c1)=C1/C(=O)Nc2ccc(C(=O)NCCOC)cc21 [Example 89] | – | < 6.22
CC/C(Nc1cnn(C2CN(CC)C2)c1)=C1/C(=O)Nc2ccc(C(=O)NC[C@H]3CCCO3)cc21 [Example 90] | – | 6.22 to 6.52
CC/C(Nc1cnn(C2CN(C(C)C)C2)c1)=C1/C(=O)Nc2ccc(C(=O)NC[C@H]3CCCO3)cc21 [Example 91] | – | 6.52 to 7.00
CC/C(Nc1ccc(N2CCN(C(C)C)CC2)cn1)=C1/C(=O)Nc2cc(F)c(C(=O)NCC(F)(F)F)cc21 [Example 92] | 6.22 to 6.52 | ≥ 7.00

The next lines start with the values.

pIC50 (LRRK2 kinase) | pIC50 [1] | SMILES
– | ≥ 7.00 | CC/C(Nc1ccc(N2C[C@H]3CN(C)C[C@H]3C2)cc1)=C1/C(=O)Nc2ccc(C(=O)NC[C@H]3CCCO3)cc21 [Example 64]
– | ≥ 7.00 | CC/C(Nc1ccc(N2CC3(CN(C)C3)C2)cc1)=C1/C(=O)Nc2ccc(C(=O)NC[C@H]3CCCO3)cc21 [Example 66]
– | ≥ 7.00 | CC/C(Nc1ccc(N2CC3CC2CN3C)cc1)=C1/C(=O)Nc2ccc(C(=O)NCC(C)C)cc21 (centres unmarked) [Example 69]
– | ≥ 7.00 | CC/C(Nc1ccc(N2CC3CC2CN3C)cc1)=C1/C(=O)Nc2ccc(C(=O)NC[C@H]3CCCO3)cc21 (some centres unmarked) [Example 70]
– | ≥ 7.00 | CC/C(Nc1ccc(N2CC3CC2CN3C)cc1)=C1/C(=O)Nc2ccc(C(=O)NCC(F)(F)F)cc21 (centres unmarked) [Example 71]
≥ 7.00 | 6.52 to 7.00 | CC/C(Nc1ccc(N2CCN(C)CC2)cn1)=C1/C(=O)Nc2ccc(C(=O)NCC(F)(F)F)cc21 [Example 75]
≥ 7.00 | 6.52 to 7.00 | CC/C(Nc1cnn(C)c1)=C1/C(=O)Nc2ccc(C(=O)NCC(F)(F)F)cc21 [Example 77]
≥ 7.00 | 6.22 to 6.52 | CC/C(Nc1ccc(-c2nc(C)no2)cc1)=C1/C(=O)Nc2ccc(C(=O)NCC(F)(F)F)cc21 [Example 78]
– | 6.22 to 6.52 | CC/C(Nc1ccc(-c2cn(C)nn2)cc1)=C1/C(=O)Nc2ccc(C(=O)NCC(F)(F)F)cc21 [Example 79]
≥ 7.00 | < 6.22 | CC/C(Nc1cnn(C2CC3(C2)CN(C)C3)c1)=C1/C(=O)Nc2ccc(C(=O)NCC(F)(F)F)cc21 [Example 84]
6.52 to 7.00 | 6.22 to 6.52 | CC/C(Nc1cnn(C2CN(C)C2)c1)=C1/C(=O)Nc2ccc(C(=O)NCC(F)(F)F)cc21 [Example 86]
– | 6.22 to 6.52 | CC/C(Nc1cnn(C2CN(C)C2)c1)=C1/C(=O)Nc2ccc(C(=O)NCC(C)C)cc21 [Example 87]
– | 6.52 to 7.00 | CC/C(Nc1cnn(C2CN(C3CCC3)C2)c1)=C1/C(=O)Nc2ccc(C(=O)NC[C@H]3CCCO3)cc21 [Example 88]
